# Test results: PubChem BioAssay AID1963431 (Molecular Pharmacology Branch, DTP, NCI, 2024)
# Test system: Rh18 complex spheroid viability, percent test/control
# Test: Anticancer human tumor Rh18 cell line growth inhibition [Asc];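 note: spheroids exposed to compound for 7 days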;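 for viability, T/C: 100% = DMSO vehicle control wells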
# Settings: for IC50: curve of first compound; for viability, T/C: stronger effect = lower value
# In short: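 Complex solid-tumor spheroids incorporating human endothelial and mesenchymal stem cells received single agents or combinations over half-log dilution ranges anchored to clinical Cmax.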
# [1] = second compound 0.1 µM, first compound 0.0316 µM
# [2] = second compound 0.1 µM, first compound 0.1 µM
# [3] = second compound 0.1 µM, first compound 0.316 µM
# [4] = second compound 0.1 µM, first compound 1 µM
# [5] = second compound 0.316 µM, first compound 0.0316 µM
# [6] = second compound 0.316 µM, first compound 0.1 µM
# [7] = second compound 0.316 µM, first compound 0.316 µM
# [8] = second compound 0.316 µM, first compound 1 µM
# [9] = second compound 1 µM, first compound 0.0316 µM
# [10] = second compound 1 µM, first compound 0.1 µM
# [11] = second compound 1 µM, first compound 0.316 µM
# [12] = second compound 1 µM, first compound 1 µM
# [13] = second compound 3.16 µM, first compound 0.0316 µM
# [14] = second compound 3.16 µM, first compound 0.1 µM
# [15] = second compound 3.16 µM, first compound 0.316 µM
# [16] = second compound 3.16 µM, first compound 1 µM
# [17] = second compound 10 µM, first compound 0.0316 µM
# [18] = second compound 10 µM, first compound 0.1 µM
# [19] = second compound 10 µM, first compound 0.316 µM
# [20] = second compound 10 µM, first compound 1 µM
smiles,measurement,setting,value
C=CC(=O)N1CCN(c2nc(=O)n(-c3c(C)ccnc3C(C)C)c3nc(-c4c(O)cccc4F)c(F)cc23)C(C)C1 (stereo not given) + Cc1c(S(C)(=O)=O)c(-c2cc(F)cc(N3CCN(c4ccc(NS(=O)(=O)c5ccc(NC(CCN6CCC(C(=O)OCCCP(=O)(O)O)CC6)CSc6ccccc6)c(S(=O)(=O)C(F)(F)F)c5)cc4)CC3)c2)c(-c2ccc(Cl)cc2)n1C(C)C,IC50,second compound 0.1 µM,< 31.6 nM
same,IC50,second compound 0.316 µM,< 31.6 nM
same,IC50,second compound 1 µM,< 31.6 nM
same,IC50,second compound 3.16 µM,< 31.6 nM
same,IC50,second compound 10 µM,< 31.6 nM
same,"viability, T/C",[1],15.2%
same,"viability, T/C",[2],17%
same,"viability, T/C",[3],15.5%
same,"viability, T/C",[4],19%
same,"viability, T/C","second compound 0.1 µM, first compound 3.16 µM",20.8%
same,"viability, T/C","second compound 0.1 µM, first compound 10 µM",29.2%
same,"viability, T/C",[5],11.4%
same,"viability, T/C",[6],11.5%
same,"viability, T/C",[7],11.4%
same,"viability, T/C",[8],12.6%
same,"viability, T/C","second compound 0.316 µM, first compound 3.16 µM",15.1%
same,"viability, T/C","second compound 0.316 µM, first compound 10 µM",17.5%
same,"viability, T/C",[9],8.27%
same,"viability, T/C",[10],8.47%
same,"viability, T/C",[11],8.62%
same,"viability, T/C",[12],7.63%
same,"viability, T/C","second compound 1 µM, first compound 3.16 µM",11.4%
same,"viability, T/C","second compound 1 µM, first compound 10 µM",15%
same,"viability, T/C",[13],6.03%
same,"viability, T/C",[14],8.21%
same,"viability, T/C",[15],7.26%
same,"viability, T/C",[16],8.5%
same,"viability, T/C","second compound 3.16 µM, first compound 3.16 µM",7.74%
same,"viability, T/C","second compound 3.16 µM, first compound 10 µM",13.2%
same,"viability, T/C",[17],3.36%
same,"viability, T/C",[18],5.72%
same,"viability, T/C",[19],4.34%
same,"viability, T/C",[20],7.21%
same,"viability, T/C","second compound 10 µM, first compound 3.16 µM",5.57%
same,"viability, T/C","second compound 10 µM, first compound 10 µM",13%
COc1c(OCCCN2CCOCC2)ccc2c3n(c(=NC(=O)c4cnc(N)nc4)nc12)CCN3 + Cc1c(S(C)(=O)=O)c(-c2cc(F)cc(N3CCN(c4ccc(NS(=O)(=O)c5ccc(NC(CCN6CCC(C(=O)OCCCP(=O)(O)O)CC6)CSc6ccccc6)c(S(=O)(=O)C(F)(F)F)c5)cc4)CC3)c2)c(-c2ccc(Cl)cc2)n1C(C)C,IC50,second compound 0.1 µM,< 3.16 nM
same,IC50,second compound 0.316 µM,< 3.16 nM
same,IC50,second compound 1 µM,< 3.16 nM
same,IC50,second compound 3.16 µM,< 3.16 nM
same,IC50,second compound 10 µM,< 3.16 nM
same,"viability, T/C","second compound 0.1 µM, first compound 0.00316 µM",17.1%
same,"viability, T/C","second compound 0.1 µM, first compound 0.01 µM",9.25%
same,"viability, T/C",[1],5.96%
same,"viability, T/C",[2],2.81%
same,"viability, T/C",[3],0.62%
same,"viability, T/C",[4],0.45%
same,"viability, T/C","second compound 0.316 µM, first compound 0.00316 µM",7.85%
same,"viability, T/C","second compound 0.316 µM, first compound 0.01 µM",8.34%
same,"viability, T/C",[5],4.97%
same,"viability, T/C",[6],1.98%
same,"viability, T/C",[7],0.56%
same,"viability, T/C",[8],0.49%
same,"viability, T/C","second compound 1 µM, first compound 0.00316 µM",8.6%
same,"viability, T/C","second compound 1 µM, first compound 0.01 µM",6.08%
same,"viability, T/C",[9],4.68%
same,"viability, T/C",[10],1.06%
same,"viability, T/C",[11],0.44%
same,"viability, T/C",[12],0.48%
same,"viability, T/C","second compound 3.16 µM, first compound 0.00316 µM",5.39%
same,"viability, T/C","second compound 3.16 µM, first compound 0.01 µM",5.31%
same,"viability, T/C",[13],3.11%
same,"viability, T/C",[14],0.45%
same,"viability, T/C",[15],0.35%
same,"viability, T/C",[16],0.46%
same,"viability, T/C","second compound 10 µM, first compound 0.00316 µM",3.54%
same,"viability, T/C","second compound 10 µM, first compound 0.01 µM",5%
same,"viability, T/C",[17],2.62%
same,"viability, T/C",[18],0.51%
same,"viability, T/C",[19],0.53%
same,"viability, T/C",[20],0.49%
NC(=O)C(=Cn1cnc(-c2cc(C(F)(F)F)cc(C(F)(F)F)c2)n1)c1cncnc1 + CCN1C(C(=O)NC23CCC(C(=O)O)(CC2)CC3)C(c2cccc(Cl)c2F)C2(C(=O)Nc3cc(Cl)ccc32)C12CCCCC2,IC50,second compound 0.03 µM,< 0.949 nM
same,IC50,second compound 0.0949 µM,< 0.949 nM
same,IC50,second compound 0.3 µM,< 0.949 nM
same,IC50,second compound 0.949 µM,< 0.949 nM
same,IC50,second compound 3 µM,< 0.949 nM
same,"viability, T/C","second compound 0.03 µM, first compound 0.000949 µM",39.2%
same,"viability, T/C","second compound 0.03 µM, first compound 0.003 µM",32%
same,"viability, T/C","second compound 0.03 µM, first compound 0.00949 µM",37.7%
same,"viability, T/C","second compound 0.03 µM, first compound 0.03 µM",32%
same,"viability, T/C","second compound 0.03 µM, first compound 0.0949 µM",26.6%
same,"viability, T/C","second compound 0.03 µM, first compound 0.3 µM",22.1%
same,"viability, T/C","second compound 0.0949 µM, first compound 0.000949 µM",19.4%
same,"viability, T/C","second compound 0.0949 µM, first compound 0.003 µM",18.7%
same,"viability, T/C","second compound 0.0949 µM, first compound 0.00949 µM",16.7%
same,"viability, T/C","second compound 0.0949 µM, first compound 0.03 µM",12.7%
same,"viability, T/C","second compound 0.0949 µM, first compound 0.0949 µM",9.47%
same,"viability, T/C","second compound 0.0949 µM, first compound 0.3 µM",4.98%
same,"viability, T/C","second compound 0.3 µM, first compound 0.000949 µM",9.47%
same,"viability, T/C","second compound 0.3 µM, first compound 0.003 µM",9.88%
same,"viability, T/C","second compound 0.3 µM, first compound 0.00949 µM",9.7%
same,"viability, T/C","second compound 0.3 µM, first compound 0.03 µM",6.03%
same,"viability, T/C","second compound 0.3 µM, first compound 0.0949 µM",5%
same,"viability, T/C","second compound 0.3 µM, first compound 0.3 µM",1.69%
same,"viability, T/C","second compound 0.949 µM, first compound 0.000949 µM",7.7%
same,"viability, T/C","second compound 0.949 µM, first compound 0.003 µM",9.36%
same,"viability, T/C","second compound 0.949 µM, first compound 0.00949 µM",6.31%
same,"viability, T/C","second compound 0.949 µM, first compound 0.03 µM",4.21%
same,"viability, T/C","second compound 0.949 µM, first compound 0.0949 µM",3.62%
same,"viability, T/C","second compound 0.949 µM, first compound 0.3 µM",1.42%
same,"viability, T/C","second compound 3 µM, first compound 0.000949 µM",6.6%
same,"viability, T/C","second compound 3 µM, first compound 0.003 µM",6.14%
same,"viability, T/C","second compound 3 µM, first compound 0.00949 µM",5.36%
same,"viability, T/C","second compound 3 µM, first compound 0.03 µM",4.12%
same,"viability, T/C","second compound 3 µM, first compound 0.0949 µM",2.88%
same,"viability, T/C","second compound 3 µM, first compound 0.3 µM",1.03%
C=CC(=O)N1CCN(c2nc(=O)n(-c3c(C)ccnc3C(C)C)c3nc(-c4c(O)cccc4F)c(F)cc23)C(C)C1 (stereo not given) + CCN1C(C(=O)NC23CCC(C(=O)O)(CC2)CC3)C(c2cccc(Cl)c2F)C2(C(=O)Nc3cc(Cl)ccc32)C12CCCCC2,IC50,second compound 0.03 µM,< 31.6 nM
same,IC50,second compound 0.0949 µM,< 31.6 nM
same,IC50,second compound 0.3 µM,< 31.6 nM
same,IC50,second compound 0.949 µM,< 31.6 nM
same,IC50,second compound 3 µM,< 31.6 nM
same,"viability, T/C","second compound 0.03 µM, first compound 0.0316 µM",37.6%
same,"viability, T/C","second compound 0.03 µM, first compound 0.1 µM",36.2%
same,"viability, T/C","second compound 0.03 µM, first compound 0.316 µM",46.5%
same,"viability, T/C","second compound 0.03 µM, first compound 1 µM",46.7%
same,"viability, T/C","second compound 0.03 µM, first compound 3.16 µM",58.2%
same,"viability, T/C","second compound 0.03 µM, first compound 10 µM",60.7%
same,"viability, T/C","second compound 0.0949 µM, first compound 0.0316 µM",23.6%
same,"viability, T/C","second compound 0.0949 µM, first compound 0.1 µM",19.3%
same,"viability, T/C","second compound 0.0949 µM, first compound 0.316 µM",24.4%
same,"viability, T/C","second compound 0.0949 µM, first compound 1 µM",23.5%
same,"viability, T/C","second compound 0.0949 µM, first compound 3.16 µM",30.1%
same,"viability, T/C","second compound 0.0949 µM, first compound 10 µM",25.4%
same,"viability, T/C","second compound 0.3 µM, first compound 0.0316 µM",13.3%
same,"viability, T/C","second compound 0.3 µM, first compound 0.1 µM",13.7%
same,"viability, T/C","second compound 0.3 µM, first compound 0.316 µM",15%
same,"viability, T/C","second compound 0.3 µM, first compound 1 µM",12.9%
same,"viability, T/C","second compound 0.3 µM, first compound 3.16 µM",15.6%
same,"viability, T/C","second compound 0.3 µM, first compound 10 µM",16%
same,"viability, T/C","second compound 0.949 µM, first compound 0.0316 µM",9.37%
same,"viability, T/C","second compound 0.949 µM, first compound 0.1 µM",9.94%
same,"viability, T/C","second compound 0.949 µM, first compound 0.316 µM",11.2%
same,"viability, T/C","second compound 0.949 µM, first compound 1 µM",9.73%
same,"viability, T/C","second compound 0.949 µM, first compound 3.16 µM",14.4%
same,"viability, T/C","second compound 0.949 µM, first compound 10 µM",12.8%
same,"viability, T/C","second compound 3 µM, first compound 0.0316 µM",9.88%
same,"viability, T/C","second compound 3 µM, first compound 0.1 µM",10%
same,"viability, T/C","second compound 3 µM, first compound 0.316 µM",9.57%
same,"viability, T/C","second compound 3 µM, first compound 1 µM",11.9%
same,"viability, T/C","second compound 3 µM, first compound 3.16 µM",13.1%
same,"viability, T/C","second compound 3 µM, first compound 10 µM",14.1%
